Measurements taken from patent US6395787B1, “Ocular hypotensive lipids” (Allergan Sales, Inc., priority 2000, dated 2002).

What was measured:
[1] = test system: isolated chick ileum (EP3 receptor preparation); test: Isolated chick ileum contraction; details: compared to prostaglandin E2, 10^−6 M
Method: Smooth muscle tension of isolated tissues was measured isometrically with force displacement transducers (Grass FT-03) and recorded on Grass Polygraphs (Models 7G and 79E). The organ baths contained Krebs solution maintained at 37° C. and gassed with 95% 02/5% CO2 to give a pH of 7.4. The Krebs solution had the following composition (mM): NaCl, 118.0; KCl, 4.7; KH2PO4, 1.2; CaCl2, 1.9; MgSO4, 1.18; NaHCO3, 25.0; glucose, 11.7; indomethacin, 0.001.
The chick ileum is an EP3 receptor preparation. Portions of the chick ileum of 1.5 cm length were suspended under 1 g of tension. After a one hour equilibration period, a standard dose-response curve for PGE2 was obtained in a non-cumulative fashion with 30 minute wash-out periods between individual doses. Subsequently, test compound was added non-cumulatively. A maximal dose of PGE2 (10^−6 M) was finally given to serve as a second reference standard. Contractile activity at each concentration was then calculated as a % of the maximal PGE2 response reached at a 10^−6 M concentration.

human FP receptor = human FP receptor (Homo sapiens, UniProt P43088); test: Total inositol phosphate accumulation, HEK-293 cells with recombinant human FP receptor; format: cell-based; set-up: expressed in transfected cells; details: for % maximal total inositol phosphate accumulation mean χ ± SEM: reference 17-phenyl PGF2α 10^−6 M
Sequence of human FP receptor (P43088 whole entry): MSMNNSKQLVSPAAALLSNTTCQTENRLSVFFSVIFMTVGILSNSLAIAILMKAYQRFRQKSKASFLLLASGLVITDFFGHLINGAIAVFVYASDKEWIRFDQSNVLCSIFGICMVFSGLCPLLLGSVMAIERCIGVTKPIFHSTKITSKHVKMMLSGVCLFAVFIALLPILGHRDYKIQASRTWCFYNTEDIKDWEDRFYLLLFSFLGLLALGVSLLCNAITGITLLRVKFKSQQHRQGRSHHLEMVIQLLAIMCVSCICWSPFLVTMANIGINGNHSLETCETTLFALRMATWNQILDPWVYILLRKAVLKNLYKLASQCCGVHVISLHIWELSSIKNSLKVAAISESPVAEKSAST
Method: HEK-293 cells were grown in DMEM with 10% fetal bovine serum (FBS), 250 μg ml^−1 G418 (Life Technologies) and 200 μg ml^−1 gentamicin or penicillin/streptomycin. […] For transfection, the cells were grown to 50-60% confluency on 10 cm plates. The plasmid pCEP4 incorporating cDNA inserts for the human FP receptor (20 μg) was added to 500 μl of 250 mM CaCl2. HEPES buffered saline×2 (2×HBSS, 280 mM NaCl, 20 mM HEPES acid, 1.5 mM Na2 HPO4, pH 7.05-7.12) was then added dropwise to a […], with continuous vortexing at room temperature. After 30 min, 9 ml DMEM were added to the mixture. The DNA/DMEM/calcium phosphate mixture was then added to the cells, which had been previously rinsed with 10 ml phosphate buffered saline (PBS). The cells were then incubated for 5 h. at 37° C. in humidified 95% air/5% CO2. The calcium phosphate solution was then removed and the cells were treated with 10% glycerol in DMEM for 2 min. The glycerol solution was then replaced by DMEM with 10% fetal bovine serum (FBS). The cells were incubated overnight and the medium was replaced by DMEM/10% FBS containing 250 μg ml^−1 G418 and penicillin/streptomycin. The following day hygromycin B was added to a final concentration of 200 μg ml^−1.
Receptor-mediated phosphoinositide (PI) hydrolysis was determined by measuring the accumulation of total inositol phosphates (IP) in cells preincubated with ^3H-myoinositol. Stable cell lines of HEK 293 cells expressing human or cat FP receptors were plated in 10 cm dishes (10^6 cells per dish in DMEM with 10% FBS). The following day, the cells were incubated with 18 μCi myo-[2 ^3H] inositol (Amersham; […]) in 6 ml of DMEM with 10% FBS for 24 hours at 37° C. The cells were then rinsed twice with phosphate buffered saline (PBS), incubated for 5 min with 1 ml of trypsin-EDTA, and suspended in 10 ml DMEM containing 25 mM HEPES buffer. Cells were pelleted at 1000 rpm and resuspended in DMEM/25 mM HEPES containing 10 mM LiCl for 10 minutes. Aliquots of 200 μl cell suspension were incubated with 50 μl drug for 30 minutes at 37° C. (duplicate determination), and agonist stimulation was terminated with a 750 μl mixture of chloroform:methanol:4N HCl (100:200:2), followed by addition of 250 μl of chloroform and 0.5 N HCl for extraction of inositol phosphates. A 750 μl volume of the aqueous layer was loaded on columns packed with 0.5 ml of Dowex AG 1-X8 anion-exchange resin (formate form, 100-200 mesh; BioRad) to separate radiolabeled components. The elution procedure consisted of three 3 ml washes with 5 mM inositol, then two elutions with 750 μl of 1.3 M ammonium formate with 0.1 M formic acid. The eluate was mixed with 10 ml Aquasol scintillation fluid (Packard Instrument Co.) and total [^3H] inositol phosphates was determined by a liquid scintillation counter.

[2] = molecular target: recombinant feline FP receptor (Felis catus, UniProt A0ABI7XJ69); test: Total inositol phosphate accumulation, HEK-293 cells with recombinant feline FP receptor; format: cell-based, cat; details: read-out: E.C.50, total inositol phosphate accumulation
Sequence of recombinant feline FP receptor (A0ABI7XJ69 entry or part of it): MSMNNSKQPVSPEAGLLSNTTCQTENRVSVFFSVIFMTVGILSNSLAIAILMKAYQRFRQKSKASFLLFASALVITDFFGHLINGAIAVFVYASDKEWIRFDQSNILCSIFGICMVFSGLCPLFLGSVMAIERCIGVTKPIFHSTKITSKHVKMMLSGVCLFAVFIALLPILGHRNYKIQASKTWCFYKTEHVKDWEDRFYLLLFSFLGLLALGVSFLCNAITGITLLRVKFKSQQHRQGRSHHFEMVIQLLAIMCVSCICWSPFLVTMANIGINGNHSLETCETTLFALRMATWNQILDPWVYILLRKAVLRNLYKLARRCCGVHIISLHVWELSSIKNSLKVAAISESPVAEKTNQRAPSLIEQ
Method: Ten days after transfection, hygromycin B resistant clones were individually selected and transferred to a separate well on a 24 well plate. At confluence each clone was transferred to one well of a 6 well plate, and then expanded in a 10 cm dish. Cells were maintained under continuous hygromycin selection until use. The stable cat FP receptor transfectants were similarly prepared using […]. Again cells were grown to 50-60% confluency on 10 cm plates and the plasmid pCEP4, incorporating cDNA inserts for the feline FP receptor, was transfected using lipofectin. Hygromycin B selection was started 48 hr post-transfection. Eight days after transfection, hygromycin B resistant clones were selected and transferred to 24 well plates. Ca^2+ signaling studies on recombinant cat and human FP receptors were performed in an identical manner to that described for the CRL 1497 cell studies.
Receptor-mediated phosphoinositide (PI) hydrolysis was determined by measuring the accumulation of total inositol phosphates (IP) in cells preincubated with ^3H-myoinositol. Stable cell lines of HEK 293 cells expressing human or cat FP receptors were plated in 10 cm dishes (10^6 cells per dish in DMEM with 10% FBS). […] The eluate was mixed with 10 ml Aquasol scintillation fluid (Packard Instrument Co.) and total [^3H] inositol phosphates was determined by a liquid scintillation counter.

Compound: CCCCC[C@H](O)/C=C/[C@@H]1[C@@H](C/C=C\CCCC(=O)NCCO)[C@@H](O)C[C@H]1O [PGF2α 1-ethanolamide, (5Z,8α,9α,11α,13E,15S)-9,11,15-trihydroxy-N-(2-hydroxyethyL)prosta-5,13-dien-1-amide]
- effect on the isolated chick ileum [1]: weak partial agonist
- % maximal total inositol phosphate accumulation mean χ ± SEM (human FP receptor; 10^−5 M): 85.0 ± 1.9%
- % maximal total inositol phosphate accumulation mean χ ± SEM (human FP receptor; 10^−6 M): 48.4 ± 3.3%
- % maximal total inositol phosphate accumulation mean χ ± SEM (human FP receptor; 10^−7 M): 10.0 ± 1.6%
- % maximal total inositol phosphate accumulation mean χ ± SEM (human FP receptor; 10^−8 M): 0.3 ± 0.6%
- EC50 (human FP receptor; HEK-293 cells, recombinant human FP receptor, read-out: E.C.50, total inositol phosphate accumulation): 1000 nM
- EC50 [2]: 524 nM
